Tested on: OPG knockout mice
Assay: Bone morphometry of lumbar trabecular bone and femoral cortical bone in OPG knockout mice given drug in feed
Format: in vivo, mouse
Conditions: 0.03% drug in paste feed, 4 weeks
Procedure: OPG knockout mice (6 week-old) were divided into 3 groups with 7 mice being prepared for each group. These mice were obtained from CLEA Japan, Inc. and categorized into three groups: control group (Cont), HX531 group (HX), and LE 135 group (LE). LE135 is a compound synthesized as a nuclear receptor […] (RAR) antagonist.
Paste feed is prepared by adding sterile water into and softening sterilized pellets in a dish. HX531 group and LE135 group were provided with the paste feed in which a corresponding drug was mixed. The amount of feed provided per day was fixed at 3 g per mouse in a solid state. The amount of drugs was calculated at 0.03% to the feed weight. Although the paste feed was exchanged everyday, almost no feed was left in all groups. A drug was administered successively for 4 weeks, and mice were double-labeled with tetracyclines and calceins by an abdominal administration 4 days and 2 days before they were sacrificed.
While bone morphometry of femur (cortical bone) and lumbar (trabecular bone) was conducted, a histological observation of femur was made. Furthermore, a blood sample was taken before the sacrifice to measure a bone formation marker.

CN1c2ccc([N+](=O)[O-])cc2N=C(c2ccc(C(=O)O)cc2)c2cc3c(cc21)C(C)(C)CCC3(C)C [HX531]
bone mass in a lumbar trabecular bone by bone morphometry (FIG. 1): large compared to the mice from the control group or mice provided with LE135 | trabecula number in a lumbar trabecular bone by bone morphometry (FIG. 2): large compared to the mice from the control group or mice provided with LE135 | bone resorption rate in a lumbar trabecular bone by bone morphometry (FIG. 7): significantly low | osteoclast surface in a lumbar trabecular bone by bone morphometry (FIG. 8): small compared to the mice from the control group | rarefaction surface/cortical bone in a femoral cortical bone by bone morphometry (FIG. 11): significantly low compared to the mice from the control group | porous surface in a femoral cortical bone by bone morphometry (FIG. 12): small
